Measurements reported in article PMC12091851, “Replacing a Cereblon Ligand by a DDB1 and CUL4 Associated Factor 11 (DCAF11) Recruiter Converts a Selective Histone Deacetylase 6 PROTAC into a Pan‐Degrader” (Chemmedchem, 2025).

Molecular target: T1, HDAC6 (Homo sapiens, UniProt Q9UBN7)
T1 sequence (Q9UBN7 1-1215): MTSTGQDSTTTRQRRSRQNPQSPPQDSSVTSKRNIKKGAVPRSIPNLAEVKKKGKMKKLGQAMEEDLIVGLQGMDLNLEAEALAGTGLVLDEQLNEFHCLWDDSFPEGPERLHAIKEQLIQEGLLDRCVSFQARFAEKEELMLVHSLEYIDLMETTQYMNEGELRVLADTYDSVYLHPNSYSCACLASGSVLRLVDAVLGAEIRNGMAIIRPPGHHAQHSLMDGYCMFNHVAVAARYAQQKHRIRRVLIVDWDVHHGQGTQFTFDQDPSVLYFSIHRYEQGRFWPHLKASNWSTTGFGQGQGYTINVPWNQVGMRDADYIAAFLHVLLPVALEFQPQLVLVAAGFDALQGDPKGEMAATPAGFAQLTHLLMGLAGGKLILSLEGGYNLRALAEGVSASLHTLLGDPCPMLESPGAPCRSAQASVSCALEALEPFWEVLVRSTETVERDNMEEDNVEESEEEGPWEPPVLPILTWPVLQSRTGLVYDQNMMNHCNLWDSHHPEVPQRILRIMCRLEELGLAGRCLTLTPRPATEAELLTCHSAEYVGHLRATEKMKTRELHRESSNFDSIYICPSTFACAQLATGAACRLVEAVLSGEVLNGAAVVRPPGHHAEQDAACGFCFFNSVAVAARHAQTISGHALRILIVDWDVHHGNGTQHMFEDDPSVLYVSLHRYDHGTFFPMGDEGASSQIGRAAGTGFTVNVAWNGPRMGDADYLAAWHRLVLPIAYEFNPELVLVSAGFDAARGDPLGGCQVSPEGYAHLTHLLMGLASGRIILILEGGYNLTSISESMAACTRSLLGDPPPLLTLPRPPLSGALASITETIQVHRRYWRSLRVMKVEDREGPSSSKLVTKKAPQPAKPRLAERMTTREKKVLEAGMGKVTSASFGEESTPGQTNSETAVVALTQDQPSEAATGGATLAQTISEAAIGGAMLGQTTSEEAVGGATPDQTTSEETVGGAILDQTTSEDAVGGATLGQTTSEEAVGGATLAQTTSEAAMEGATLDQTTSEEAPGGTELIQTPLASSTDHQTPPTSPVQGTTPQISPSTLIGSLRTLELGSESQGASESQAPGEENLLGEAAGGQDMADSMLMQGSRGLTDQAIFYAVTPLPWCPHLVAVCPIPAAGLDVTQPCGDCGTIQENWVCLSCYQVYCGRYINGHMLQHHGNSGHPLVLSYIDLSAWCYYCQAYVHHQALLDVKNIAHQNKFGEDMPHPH
Experiment: Simple Western immunoassay, HDAC6 levels in MM.1S cell lysates
Type: cell-based
Parameters: endogenous in cells; host or cells: MM.1S
Conditions: MM.1S cells, 10 μM; for reduction of HDAC6 protein levels: 24 h
Method: Figure 3 Initial degradation screening of HDAC1 and 6 by DCAF11‐recruiting PROTACs by Simple Western™ immunoassay analysis of MM.1S cell lysates. MM.1S cells were treated with the indicated compound (10 μM) or vehicle (DMSO) for 24 h. […] Bottom: Representative images from a total of n=3 biological replicates, labeled with spacer type; w/o: without spacer.
2. Biological Experiments […]
The human multiple myeloma cell line MM.1S (CRL-2974) was obtained from American Type Culture Collection (ATCC, Manassas, VA, USA). The semi-adherent cells were cultivated in RPMI 1640 medium (Catalog#21875-034, Gibco, ThermoFisher Scientific Inc., Waltham, MA, USA) supplemented with 10% FBS (PAN Biotech GmbH; Aidenbach, Germany), 100 IU/mL penicil lin, 0.1 mg/mL streptomycin (PAN Biotech GmbH) and 1 mM sodium pyruvate (ThermoFisher Scientific Inc.). […]
(PAN Biotech GmbH). All cells were cultured at 37 °C in a 5% CO2 atmosphere. Incubation times, as part of assay protocols, were performed under these conditions as well. […]
2.2. Simple Western™ Immunoassay
For the cell lysates, MM.1S (0.5 × 10^6 cells/mL) or U-87MG (0.18 × 10^6 cells/mL) cells were seeded and incubated with the indicated concentration of compound or vehicle (DMSO) for the given time. […]
SDS, 0.5% deoxycholate; Catalog# FNN0011, Thermo Fisher Scientific Inc., Waltham, MA, USA) with addition of Halt Protease Inhibitor Cocktail (100×) (Catalog# 78429, Life Technologies GmbH, Carlsbad, CA, USA) and phenylmethanesulfonyl fluoride (Catalog# 10837091001, Sigma-Aldrich, St.
Louis, MO, USA) according to manufacturer´s instructions. Protein content was determined by Pierce™ BCA Protein Assay Kit (Catalog# 23225, Thermo Fisher Scientific Inc.) according to manufacturer´s guidelines. […]
Fluorescence Separation 8x25 Capillary Cartridges (Catalog# SM-FL004-1, Protein Simple, Bio-Techne, Minneapolis, MN, USA) were used for separation and the Anti-Mouse Detection Module (Catalog# DM-002, Protein Simple) was used for detection with addition of 20x Anti-Rabbit HRP […]
Conjugate (Catalog# 043-426, Protein Simple) according to manufacturer´s instructions. […] Evaluation and quantification was performed with the compass software (6.2.0, Protein Simple). […]
For the cell viability assay the automated pipetting robot system ASSIST PLUS (Model# 4505, Integra Biosciences, Bibertal, Germany) was used. […] The toxicity of compounds was determined after 72 h using the CellTiter-Glo 2.0 Cell Viability Assay (Promega, Madison, WI, USA, #G9242) according to the manufacturer´s protocol. Subsequently, the luminescence was measured using a Tecan Spark (Tecan Group AG, Maennedorf, Swiss) and the half maximal effective concentration (EC50) was determined by plotting dose response curves and nonlinear regression with GraphPad Prism (GraphPad Software, San […]

time dependent degradation of HDAC6 (after 6 h) | Structure (SMILES) | effect on HDAC6 protein levels (14 h) | reduction of HDAC6 protein levels
– | O=CN(CCCCCCCCCCCC(=O)Nc1ccc(C(=O)NCCCCCCC(=O)NO)cc1)C(C(=O)NCc1ccccc1)c1ccc(Cl)c(Cl)c1 (stereo not shown) [Compound 1j-nc] | not able to affect the protein levels of HDAC1 and 6 | –
significant degradation | O=C(CCCCCCNC(=O)c1ccc(NC(=O)CCCCCCCCCCCN(C(=O)CCl)C(C(=O)NCc2ccccc2)c2ccc(Cl)c(Cl)c2)cc1)NO (stereo not shown) [Compound 1j] | – | significant reduction of HDAC6 protein levels
– | O=C(CCCCCCNC(=O)c1ccc(N(C(=O)CCl)C(C(=O)NCc2ccccc2)c2ccc(Cl)c(Cl)c2)cc1)NO (stereo not shown) [Compound 2] | – | significant reduction of HDAC6 protein levels
